From paper PMC9838834, “Improvement of Antialveolar echinococcosis efficacy of novel Albendazole-Bile acids Derivatives with Enhanced Oral Bioavailability” (PLOS Neglected Tropical Diseases, 2023)

Legend:
protoscolex (PSCs) [1] = experiment: Detection of protoscolex mortality / survival rate in vitro (trypan blue); assay type: cell-based, E. multilocularis; settings: 7 days; ABZ 10 μg/mL, ABZ-SO 10 μg/mL, ABZ-BA 13.45, 26.9, 53.8 μg/mL; liver homogenate + 0.2% DMSO; n = 3
From the text: (§1) Protoscoleces (PSCs) from E. multilocularis were collected aseptically from alveolar echinococcosis obtained from the abdominal cavity of gerbils in Qinghai Research Key Laboratory for Echinococcosis, China. The specific operation steps were as follows: (1) dissect the successfully preserved Echinococcus protoscoleces gerbil model, isolate cysts and wash the residual liver tissue and blood with sterile Penicillin-Streptomycin solution (penicillin (1500 U/ mL) + streptomycin (1000 U/ mL)). (2) Place the clean cysts in sterile glassware, cut them into a slurry, filter the original head section with sterile gauze, and rinse them with Penicillin-Streptomycin solution 3 times. (3) Slightly rotate and shake the filtrate, absorb the suspended connective tissue, impurities, inactivated PSCs, and excess Penicillin-Streptomycin solution in the upper layer, repeat several times and finally concentrate the pure PSCs into the test tube. Viability was assessed by muscular movement (evaluated under an optical microscope), the motility of flame cells, and the exclusion test with methylene blue. The PSCs were incubated in an RPMI 1640 medium containing 0.20 mg/mL liver homogenous serous, 100 U/mL penicillin, 100 μg/mL streptomycin and 10% calf serum at 37°C in a 5% CO2 atmosphere at a concentration of (1000–2000) PSCs/mL.
(§2) The PSCs were divided into blank control groups (Groups 1 and 2), positive control groups (Groups 3 and 4), and experimental groups (Groups 5 to 7). Group 1 was RPMI-1640 medium with 0.20 mg/mL liver homogenate; Group 2 was 0.2% DMSO medium with 0.2% DMSO; Group 3 was RPMI-1640 medium with 0.20 mg/mL liver homogenate and 0.2% DMSO, containing 10 μg/mL Albendazole; Group 4 was RPMI-1640 medium with 0.20 mg/mL liver homogenate and 0.2% DMSO, containing 10 μg/mL albendazole sulfoxide; Groups 5–7 were RPMI-1640 medium with 0.20 mg/mL liver homogenate and 0.2% DMSO, containing 13.45, 26.9 and 53.8 μg/mL ABZ-BA, with effective ABZ concentrations of 5, 10 and 20 μg/mL, respectively. The culture medium and drug were changed every 3 days for one week. PSCs samples (10 μL) were collected every day and stained with 0.4% trypan blue staining solution, observed under an inverted microscope, and photographed to record PSC mortality.

protoscolex (PSCs) [2] = experiment: Protoscolex microstructure by optical microscope and SEM; assay type: cell-based, E. multilocularis; settings: 5 days after treatment, 10 μg/mL
From the text: as §1, §2
For ultrastructural studies, 200 μL PSCs were taken from each group 5 days after treatment and fixed with 4% glutaraldehyde in sodium cacodylate buffer at 4°C for 72 hours. Samples were dehydrated by continuous incubation in increasing concentrations of ethanol (50–100%), and ethanol was removed by supercritical extraction. They were then sputter-coated with gold (100 Å thick) and examined on an FEI Quanta 200 scanning electron microscope operating at 20 kV.

[3] = Systemic pharmacokinetics in SD rats (UHPLC-MS); assay type: in vivo, Sprague-Dawley (SD) rats; settings: SD rats, oral 25 mg/kg
Procedure: A Dionex Ultimate 3000 RSLC system (Thermofisher) combined with an Accucore aQ C18 column (150 mm×2.1 mm, 2.6 μm, Thermo fisher) was used in the sample separation process. The separation speed was set at […] for all gradients. 1 μL of injection volume and a constant temperature of (25 ± 1°C were set for the column. The eluents were A, water with 0.1% formic acid (v/v) and B, methanol; the gradient program was as follows: 0–6 min, 8–40% B; 6–8 min, 40–100% B; 8–10 min, 100% B; 10–11 min, 100–8% B; 11–13 min, 8% B.
Heated electro-spray ionization (HE-SI) was paired with a Q-Orbitrap MS in the MS analysis. The flow rate of auxiliary, sheath and sweep gas was set at 35, 10, and 1 (arbitrary unit), respectively. A full MS-ddMS^2 mode was used to perform the analysis. The damping gas in the C-trap and nitrogen was used to stabilize the spraying. Temperatures of 350°C and 320°C were set and kept for the auxiliary gas heater and capillary. Under negative mode, 3.0 kV was adopted for the spray voltage, 60 V was used for the S-lens RF level, 50 ms was used for the maximum injection time, and 3.0 ^e6 was set as the automatic gain control target. Full MS-ddMS^2 scan ranged from 150.0000 to 800.0000 m/z. Precise molecular weight […] was used for qualitative analysis, the corresponding peak area was used for quantitative analysis, and MS^2 fragments were used for further qualitative analysis.
A cross-over design was employed with male SD rats (n = 7) to evaluate in vivo pharmacokinetics. The rats were subjected to fasting for one night before each administration and were fed 4 hours after administration. ABZ was administered by gavage (25 mg/kg). Blood was collected under isoflurane anesthesia at a flow rate of 2.0 mL/min. At 0.25, 0.5, 1, 2, 2.5, 3, 4, 6, 8, 12, and 24 hours after administration, 200–500 μL blood was collected from the orbital venous plexus and centrifuged at 13000 rpm for 5 min. The upper plasma was stored at—80°C for testing.
Plasma samples were thawed at room temperature, and 100 μL was added to an equal volume of mass spectrometry grade methanol, vortexed for 1 min, and centrifuged again at 13000 rpm for 5 min. 100 μL of the supernatant were added to 100 μL of 200 ng/mL mebendazole IS solution, vortexed for 1 min, and centrifuged again at 13000 rpm for 5 min. The resulting sample was injected by UHPLC-HR-ESI-MS with an injection volume of 1 μL. The pharmacokinetic study of SD rats was performed according to the standards recommended by the "Guidelines for the Care and Use of Laboratory Animals" (Animal Laboratory Resources Institute, 1995) and was approved by the Institutional Animal Care and Use Committee of Qinghai University.

detection in plasma 24 hours after administration [3]	shape of the drug time curve [3]	Frel (relative bioavailability) = AUCAbz(0–24)/AUCABZ (0–24) ([3]; n = 7)	Compound	inhibitory effect on PSC survival rate (protoscolex (PSCs) [1])	PSC morphology under the SEM (protoscolex (PSCs) [2])	PSC morphology under the optical microscope (OM) (protoscolex (PSCs) [2])	mortality of PSCs (protoscolex (PSCs) [2]; vs blank groups)
–	–	–	CCC[S+]([O-])c1ccc2[nH]c(NC(=O)OC)nc2c1 (stereo not shown) [ABZ-SO, albendazole sulfoxide]	time and concentration-dependent inhibitory effects	elongated and curled up	became vacuolar and transparent	significantly higher than in the blank groups
still detected	double-peak	2613%	CCCSc1ccc2[nH]c(NC(=O)OC)nc2c1 [Abz]	–	–	–	–
